Where a name gives a salt, the structure may show the parent alone.
Assays:
[1] = test system: human umbilical vein endothelial cells (HUVEC's); assay: Endothelial recruitment assay (HUVEC migration towards melanoma cells); assay type: cell-based; settings: for ability of melanoma cells to recruit endothelial cells: MeWo, HT-144, SK-Mel-2, SK-Mel-334.2, 1 μM for 72 hours
Procedure: 5×10^4 cancer cells were seeded into 24-well plates approximately 24 hours prior to the start of the assay. HUVEC's were grown to 80% confluency and serum starved in EGM-2 media supplemented with 0.2% FBS for 16 hours. HUVEC's were then pulsed with Cell Tracker Red CMTPX dye (C34552, Invitrogen) for 45 minutes. Meanwhile, cancer cells were washed with PBS, 0.5 mL of 0.2% FBS EGM-2 media was added to each well, and a 3.0 μm HTS Fluoroblock insert (351151, BD Falcon, San Jose, Calif.) was placed into each well. 1×10^5 HUVEC's, resuspended in 0.5 mL of starvation media, were seeded into each trans-well insert, and the recruitment assay was allowed to proceed for 16-18 hours at 37° C. For neutralization antibody and/or recombinant protein experiments, antibody/protein was then added to each well at the appropriate concentration as indicated in the figures: 40 μg/mL anti-ApoE 1D7, 40 μg/mL anti-IgG, 100 μM rhApoE3, and 100 μM BSA. Upon completion of the assay, the inserts were processed and analyzed as described for the matrigel invasion assay above (See Matrigel Invasion Assay).
The endothelial recruitment assay was carried out as previously described (Pencheva et al., 2012; Png et al., 2012). Melanoma cells were treated with DMSO, GW3965, T0901317, or Bexarotene at 1 μM for 56 hours, after which 5×10^4 cells were seeded in a 24-well plate in the presence of each drug and allowed to attach for 16 hours prior to starting the assay. HUVEC cells were serum-starved overnight in EGM-2 media containing 0.2% FBS. The following day, 1×10^5 HUVEC cells were seeded into a 3.0 μm HTS Fluoroblock trans-well migration insert (351151, BD Falcon, San Jose, Calif.) fitted into each well containing cancer cells at the bottom. The HUVEC cells were allowed to migrate towards the cancer cells for 20 hours at 37° C., after which the inserts were processed as previously described (Pencheva et al., 2012). For ApoE antibody neutralization experiments, 40 μg/mL 1D7 anti-ApoE blocking antibody (Heart Institute, University of Ottawa, Ottawa, Canada) or 40 μg/mL anti-IgG control antibody (AB-108-C, R&D Systems, Minneapolis, Minn.) was added to each trans-well insert at the start of the assay.
Subsequently, 5×10^4 cancer cells were seeded into 24-well plates in the presence of each drug or DMSO and allowed to attach for 16 hours prior to starting the assay. Human umbilical vein endothelial cells (HUVEC cells) were serum-starved in 0.2% FBS-containing media overnight. The following day, 1×10^5 HUVEC cells were seeded into a 3.0 μm HTS Fluoroblock insert (351151, BD Falcon) fitted into each well containing the cancer cells at the bottom. The HUVEC cells were allowed to migrate towards the cancer cells for 20 hours, after which the inserts were washed in PBS, fixed in 4% PFA, labeled with DAPI, and mounted on slides. The basal side of each insert was imaged using an inverted fluorescence microscope (Zeiss Axiovert 40 CFL) at 5× magnification, and the number of DAPI-positive cells was quantified using ImageJ.

[2] = test system: MeWo, MeWo-LM2, HT-144, SK-Mel-2 and SK-Mel-334.2 human melanoma cells; assay: Trans-well matrigel cell invasion assay, melanoma cells; assay type: cell-based; settings: for ability of melanoma cells to invade through matrigel: MeWo, HT-144, SK-Mel-2, SK-Mel-334.2, 1 μM for 72 hours
Procedure: Cancer cells were serum-starved in 0.2% FBS DMEM-based media for 12 hours. Trans-well invasion chambers (354480, BD Biosciences, Bedford, Mass.) were pre-equilibrated prior to beginning the assay by adding 0.5 mL of starvation media to the top and bottom chambers. After 30 minutes, the media in the top chamber was removed, and 0.5 mL of media containing 1×10^5 cancer cells was added into each matrigel-coated trans-well insert and incubated at 37° C. for 24 hours. For neutralization antibody and/or recombinant protein experiments, antibody/recombinant protein was added to each well at the start of the assay at the following concentrations as indicated in the figures: 5-40 μg/mL anti-ApoE 1D7 (Heart Institute, University of Ottawa), 5-40 μg/mL anti-IgG (AB-108-C, R&D Systems, Minneapolis, Minn.), 100 μM recombinant human ApoE3 (4696, BioVision, Mountain View, Calif.), and 100 μM BSA (A2153, Sigma-Aldrich). Upon completion of the assay, matrigel-coated inserts were washed with PBS, the cells at the top side of each insert were scraped off, and the inserts were fixed in 4% paraformaldehyde for 15 minutes. The inserts were then cut out and mounted onto slides using VectaShield mounting medium containing DAPI (H-1000, Vector Laboratories, Burlingame, Calif.). The basal side of each insert was imaged using an inverted fluorescence microscope (Zeiss Axiovert 40 CFL) at 5× magnification, taking three representative images for each insert. The number of invaded cells was quantified using ImageJ (NIH).
The cell invasion assay was performed as previously described in detail (Pencheva et al., 2012) using a trans-well matrigel invasion chamber system (354480, BD Biosciences). In brief, various melanoma cells were cultured in the presence of DMSO, GW3965, T0901317, or Bexarotene at 1 μM for 56 hours, after which melanoma cells were switched to starvation media (0.2% FBS) for 16 hours in the presence of each drug. Following starvation, cells were seeded into matrigel-coated trans-well inserts, and the invasion assay was allowed to proceed for 24 hours at 37° C. For ApoE antibody neutralization experiments, 40 μg/mL 1D7 anti-ApoE blocking antibody (Heart Institute, University of Ottawa, Ottawa, Canada) or 40 t g/mL anti-IgG control antibody (AB-108-C, R&D Systems, Minneapolis, Minn.) was added to each trans-well insert at the start of the assay.
The cells were then serum starved for 16 hours in 0.2% FBS media in the presence of each corresponding drug or DMSO. Following serum starvation, the cells were subjected to the trans-well invasion assay using a matrigel invasion chamber system (354480, BD Biosciences). Invasion chambers were pre-equilibrated prior to the assay by adding 0.5 mL of starvation media to the top and bottom wells. Meanwhile, cancer cells were trypsinized and viable cells were counted using trypan blue. Cancer cells were then resuspended at a concentration of 2×10^5 cells/1 mL starvation media, and 0.5 mL of cell suspension, containing 1×10^5 cells, was seeded into each trans-well. The invasion assay was allowed to proceed for 24 hours at 37° C. […] Following fixation, the inserts were washed in PBS, cut out, and mounted onto slides using VectaShield mounting medium containing DAPI nuclear stain (H-1000, Vector Laboratories). The basal side of each insert was imaged using an inverted fluorescence microscope (Zeiss Axiovert 40 CFL) at 5× magnification, and the number of DAPI-positive cells was quantified using ImageJ.

[3] = MeWo cells pre-treated 48 hours
[4] = metastatic LM2 cells, recombinant ApoE3 100 μM vs BSA

Molecule	endothelial recruitment [1, 3]	ability of melanoma cells to recruit endothelial cells [1]	tumor cell invasion [2, 3]	ability of melanoma cells to invade through matrigel [2]	migration of endothelial cells towards highly metastatic cancer cells ([1]; endothelial cells pre-incubated with ApoE3 100 μM for 24 hours, LM2 cells)	endothelial recruitment [1, 4]	invasion [2, 4]
O=C(O)Cc1cccc(OCCCN(Cc2cccc(C(F)(F)F)c2Cl)CC(c2ccccc2)c2ccccc2)c1 [GW3965 2, 3-[3-[N-(2-Chloro-3-trifluoromethylbenzyl)-(2,2-diphenylethyl)amino]propyloxy] phenylacetic acid hydrochloride]	decreased	consistently suppressed	decreased	consistently suppressed	–	–	–
recombinant human ApoE: recombinant human ApoE3 (4696, BioVision)	–	–	–	–	significantly reduced	significantly suppressed	significantly suppressed
O=S(=O)(c1ccccc1)N(CC(F)(F)F)c1ccc(C(O)(C(F)(F)F)C(F)(F)F)cc1 [T0901317 1]	–	consistently suppressed	–	consistently suppressed	–	–	–

From US10945978B2, “Treatment and diagnosis of melanoma” (The Rockefeller University, priority 2012, dated 2021)
